# Assay results published in ChEMBL document CHEMBL4145521, “Regioselective synthesis of 3,4-diaryl-5-unsubstituted isoxazoles, analogues of natural cytostatic combretastatin A4” (Eur J Med Chem, 2018).
# Legend:
# Format in all cases: functional
# OVCAR-3 = experiment: Cytotoxicity against human OVCAR3 cells assessed as cell growth at 10 uM incubated for 48 hrs by sulforhodamine B assay relative to control; details: OVCAR-3, 48 h, read-out: Activity
# MDA-MB-435 [1] = experiment: Cytotoxicity against human MDA-MB-435 cells assessed as cell growth at 0.1 uM incubated for 48 hrs by sulforhodamine B assay relative to control; details: MDA-MB-435, 48 h, read-out: Activity
# HCT-15 = experiment: Cytotoxicity against human HCT15 cells assessed as cell growth at 10 uM incubated for 48 hrs by sulforhodamine B assay relative to control; details: HCT-15, 48 h, read-out: Activity
# HOP-92 = experiment: Cytotoxicity against human HOP92 cells assessed as cell growth at 1 uM incubated for 48 hrs by sulforhodamine B assay relative to control; details: HOP-92, 48 h, read-out: Activity
# NCI-H522 = experiment: Cytotoxicity against human NCI-H522 cells incubated for 48 hrs by sulforhodamine B assay; details: NCI-H522, 48 h
# T47D = experiment: Cytotoxicity against human T47D cells assessed as cell growth at 0.01 uM incubated for 48 hrs by sulforhodamine B assay relative to control; details: read-out: Activity
# A549 = experiment: Cytotoxicity against human A549/ATCC cells assessed as cell growth at 0.1 uM incubated for 48 hrs by sulforhodamine B assay relative to control; details: A549, 48 h, read-out: Activity
# SR = experiment: Cytotoxicity against human SR cells assessed as cell growth at 1 uM incubated for 48 hrs by sulforhodamine B assay relative to control; details: read-out: Activity
# K562 = experiment: Cytotoxicity against human K562 cells assessed as cell growth at 0.1 uM incubated for 48 hrs by sulforhodamine B assay relative to control; details: K562, 48 h, read-out: Activity
# NCI-H23 = experiment: Cytotoxicity against human NCI-H23 cells incubated for 48 hrs by sulforhodamine B assay; details: NCI-H23, 48 h
# PC-3 = experiment: Cytotoxicity against human PC3 cells assessed as cell growth at 0.01 uM incubated for 48 hrs by sulforhodamine B assay relative to control; details: PC-3, 48 h, read-out: Activity
# LOX IMVI = experiment: Cytotoxicity against human LOXIMVI cells assessed as cell growth at 0.1 uM incubated for 48 hrs by sulforhodamine B assay relative to control; details: read-out: Activity
# ACHN = experiment: Cytotoxicity against human ACHN cells assessed as cell growth at 0.1 uM incubated for 48 hrs by sulforhodamine B assay relative to control; details: read-out: Activity
# OVCAR-8 [2] = experiment: Cytotoxicity against human OVCAR8 cells incubated for 48 hrs by sulforhodamine B assay; details: OVCAR-8, 48 h
# U-251 = experiment: Cytotoxicity against human U251 cells incubated for 48 hrs by sulforhodamine B assay; details: U-251, 48 h
# UO-31 = experiment: Cytotoxicity against human UO31 cells assessed as cell growth at 0.1 uM incubated for 48 hrs by sulforhodamine B assay relative to control; details: UO-31, 48 h, read-out: Activity
# M14 = experiment: Cytotoxicity against human M14 cells incubated for 48 hrs by sulforhodamine B assay; details: M14, 48 h
# OVCAR-8 [3] = experiment: Cytotoxicity against human OVCAR8 cells assessed as cell growth at 0.1 uM incubated for 48 hrs by sulforhodamine B assay relative to control; details: OVCAR-8, 48 h, read-out: Activity
# CAKI-1 = experiment: Cytotoxicity against human Caki1 cells incubated for 48 hrs by sulforhodamine B assay; details: CAKI-1, 48 h
# MOLT-4 = experiment: Cytotoxicity against human MOLT4 cells assessed as cell growth at 0.1 uM incubated for 48 hrs by sulforhodamine B assay relative to control; details: MOLT-4, 48 h, read-out: Activity
# MDA-MB-435 [4] = experiment: Cytotoxicity against human MDA-MB-435 cells incubated for 48 hrs by sulforhodamine B assay; details: MDA-MB-435, 48 h
# NCI-H226 [5] = experiment: Cytotoxicity against human NCI-H226 cells assessed as cell growth at 0.1 uM incubated for 48 hrs by sulforhodamine B assay relative to control; details: NCI-H226, 48 h, read-out: Activity
# Hs-578T = experiment: Cytotoxicity against human Hs 578T cells assessed as cell growth at 10 uM incubated for 48 hrs by sulforhodamine B assay relative to control; details: read-out: Activity
# SF-268 [6] = experiment: Cytotoxicity against human SF268 cells assessed as cell growth at 1 uM incubated for 48 hrs by sulforhodamine B assay relative to control; details: SF-268, 48 h, read-out: Activity
# OVCAR-4 = experiment: Cytotoxicity against human OVCAR4 cells assessed as cell growth at 10 uM incubated for 48 hrs by sulforhodamine B assay relative to control; details: OVCAR-4, 48 h, read-out: Activity
# NCI-H226 [7] = experiment: Cytotoxicity against human NCI-H226 cells assessed as cell growth at 100 uM incubated for 48 hrs by sulforhodamine B assay relative to control; details: NCI-H226, 48 h, read-out: Activity
# NCI/ADR-RES = experiment: Cytotoxicity against human NCI/ADR-RES cells assessed as cell growth at 10 uM incubated for 48 hrs by sulforhodamine B assay relative to control; details: read-out: Activity
# IGROV-1 = experiment: Cytotoxicity against human IGROV1 cells assessed as cell growth at 0.1 uM incubated for 48 hrs by sulforhodamine B assay relative to control; details: IGROV-1, 48 h, read-out: Activity
# SNB-19 = experiment: Cytotoxicity against human SNB19 cells assessed as cell growth at 10 uM incubated for 48 hrs by sulforhodamine B assay relative to control; details: SNB-19, 48 h, read-out: Activity
# SF-268 [8] = experiment: Cytotoxicity against human SF268 cells assessed as cell growth at 10 uM incubated for 48 hrs by sulforhodamine B assay relative to control; details: SF-268, 48 h, read-out: Activity
# [9] = read-out: LC50 (the source's name)
# [10] = read-out: pLC50 (the source's name) (converted)
smiles,measurement,setting,value
COc1ccc(-c2nocc2-c2cc(OC)c(OC)c(OC)c2)cc1,growth at 10 µM,OVCAR-3,-9%
same,growth at 0.1 µM,MDA-MB-435 [1],3%
same,growth at 10 µM,HCT-15,11%
same,growth at 1 µM,HOP-92,46%
same,GI50,NCI-H522; read-out: GI50,22.5 nM
same,LC50,NCI-H522; read-out: LC50,> 100 µM
same,TGI,NCI-H522; read-out: TGI,75.2 nM
same,GI50,NCI-H522; read-out: pGI50 (converted),22.4 nM
same,LC50,NCI-H522; read-out: pLC50 (converted),> 100 µM
same,TGI,NCI-H522; read-out: pTGI (converted),75.9 nM
same,growth at 0.01 µM,T47D,81%
same,growth at 0.1 µM,A549,47%
same,growth at 1 µM,SR,30%
same,growth at 0.1 µM,K562,24%
same,GI50,NCI-H23; read-out: GI50,283 nM
same,CC50,NCI-H23; [9],> 100 µM
same,TGI,NCI-H23; read-out: TGI,74.9 µM
same,GI50,NCI-H23; read-out: pGI50 (converted),282 nM
same,CC50,NCI-H23; [10],> 100 µM
same,TGI,NCI-H23; read-out: pTGI (converted),74.1 µM
same,growth at 0.01 µM,PC-3,99%
same,growth at 0.1 µM,LOX IMVI,55%
same,growth at 0.1 µM,ACHN,62%
same,GI50,OVCAR-8 [2]; read-out: GI50,327 nM
same,CC50,OVCAR-8 [2]; [9],> 100 µM
same,TGI,OVCAR-8 [2]; read-out: TGI,> 100 µM
same,GI50,OVCAR-8 [2]; read-out: pGI50 (converted),324 nM
same,CC50,OVCAR-8 [2]; [10],> 100 µM
same,TGI,OVCAR-8 [2]; read-out: pTGI,> 100 µM
same,GI50,U-251; read-out: GI50,90.6 nM
same,CC50,U-251; [9],> 100 µM
same,TGI,U-251; read-out: TGI,65.8 µM
same,GI50,U-251; read-out: pGI50 (converted),91.2 nM
same,CC50,U-251; [10],> 100 µM
same,TGI,U-251; read-out: pTGI (converted),66.1 µM
same,growth at 0.1 µM,UO-31,70%
same,GI50,M14; read-out: GI50,66.8 nM
same,CC50,M14; [9],> 100 µM
same,TGI,M14; read-out: TGI,53.9 µM
same,GI50,M14; read-out: pGI50 (converted),66.1 nM
same,CC50,M14; [10],> 100 µM
same,TGI,M14; read-out: pTGI (converted),53.7 µM
same,growth at 0.1 µM,OVCAR-8 [3],74%
same,GI50,CAKI-1; read-out: GI50,642 nM
same,LC50,CAKI-1; read-out: LC50,> 100 µM
same,TGI,CAKI-1; read-out: TGI,> 100 µM
same,GI50,CAKI-1; read-out: pGI50 (converted),646 nM
same,LC50,CAKI-1; read-out: pLC50 (converted),> 100 µM
same,TGI,CAKI-1; read-out: pTGI,> 100 µM
same,growth at 0.1 µM,MOLT-4,85%
same,GI50,MDA-MB-435 [4]; read-out: GI50,23.9 nM
same,CC50,MDA-MB-435 [4]; [9],> 100 µM
same,TGI,MDA-MB-435 [4]; read-out: TGI,130 nM
same,GI50,MDA-MB-435 [4]; read-out: pGI50 (converted),24 nM
same,CC50,MDA-MB-435 [4]; [10],> 100 µM
same,TGI,MDA-MB-435 [4]; read-out: pTGI (converted),129 nM
same,growth at 0.1 µM,NCI-H226 [5],90%
same,growth at 10 µM,Hs-578T,28%
same,growth at 1 µM,SF-268 [6],45%
same,growth at 10 µM,OVCAR-4,32%
same,growth at 100 µM,NCI-H226 [7],-20%
same,growth at 10 µM,NCI/ADR-RES,9%
same,growth at 0.1 µM,IGROV-1,54%
same,growth at 10 µM,SNB-19,29%
same,growth at 10 µM,SF-268 [8],27%
